The values that follow come from patent US8597693B2, “Pharmaceutical composition with immunomodulating function” (Industrial Technology Research Institute, priority 2010, dated 2013).

Molecules are shown by their SMILES. ≈ marks a conversion by molar mass, not a printed value.

Test [1] has as its system TNF-α. Nature of the test: TNBS enteritis mouse model, TNF-α in colon infusion. Type of test: in vivo, BABL/c mice. The conditions noted are these: 0.6 mg/kg fed + 1.75 mg of TNBS; colon infusion after 48 hours; negative value = enhanced excretion. The text has this: (§1) The BABL/c mice were categorized into 4 groups. Each group had 6 […].
Test [2] has as its system IL-6. The test is described as follows: TNBS enteritis mouse model, IL-6 in colon infusion. The conditions noted are these: 0.6 mg/kg fed + 1.75 mg of TNBS; colon infusion after 48 hours; negative value = enhanced excretion. Type of test: in vivo, BABL/c mice.
Description: as §1

In test [3] the test system is carrageenan induced hindpaw edema. The test is described as follows: Carrageenan induced hindpaw edema in a rat model. Type of test: in vivo, Long-Evan rats. The conditions noted are these: 3 mg/kg fed 1 hour before carrageenan (positive control), left hindpaw volume. As for the experimental part:
Long-Evan rats were fed with the extract (a) in Example 5 (i) in an amount of 250 mg/kg, 500 mg/kg, 1000 mg/kg, respectively. The positive control was fed with 3 mg/kg of indomethacin (NSAID). The negative control was fed with 10 ml/kg of 2% Tween 80 as a carrier. After 1 hour, the rats were injected 0.1 ml of 1% carrageenan on the left hindpaw. The volume of the rat's left hindpaw was measured by plethysmometer (Stoelting) at the 0, 1.5th, and 3rd hour after injection. The inhibition was calculated by the formula: Inhibition(%)=(Nt−Nv)/Nv×100
In the formula, Nt represents the left hindpaw volume of the rat fed with the ethanol extract; Nv represents the left hindpaw of the rat fed with the carrier.
Background: The carrageenan paw model is a standard test of acute inflammation.

In test [4] the test system is TNF-α. The test is described as follows: Inhibition of TNF-α excretion in LPS-stimulated U937 cells. The class given is cell-based. To be noted: Homo sapiens, U-937; PMA-activated U937, 30 minutes preincubation, LPS 4 hours, ELISA of supernatant. As for the experimental part:
The cell line, U937 (human monocyte cell line), was incubated in RPMI medium containing 50 ng/ml PMA (phorbol 12-myristate 13-acetate) (Sigma) and 10% fetal bovine serum (Moor et. al., Roswell Park Memorial Institute) for 24 hours. The cell line was then moved to the RPMI medium without PMA for further 48 hours. The activated U937 was seeded into a 96-well plate in a concentration of 1.6×10^5 cell/well. The wells were added 12.5 μg/ml, 25 μg/ml, 50 μg/ml and 100 μg/ml of kaerophyllin and 1 μg/ml, 3 μg/ml, 10 μg/ml and 30 μg/ml of isokaerphyllin and 10 μl of buffer, respectively. Each well was adjusted to a final volume of 190 μl. The plate was reacted under 37° C. for 30 minutes. Each well was added 10 μl of 20 μg/ml LPS to stimulate cells. After 4 hours under 37° C., the plate was centrifuged to collect the supernatants.
The amount of TNF-α in the supernatant was measured by ELISA (R&D System®) based on the control (DMSO). Meanwhile, the cell viability was measured by MTT assay (Sigma).
A general note: An ELISA detects its analyte on a solid surface through an enzyme-linked reagent.

Test [5] relates to IL-6. Nature of the test: Inhibition of IL-6 excretion in LPS-stimulated U937 cells. Type of test: cell-based. The conditions noted are these: Homo sapiens, U-937; PMA-activated U937, 30 minutes preincubation, LPS 16-18 hours, ELISA of supernatant. As to the method:
The cell line, U937, was cultured like Example 13. The activated U937 was then seeded in a 96-well plate in a concentration of 1.6×10^5 cell/well. The wells were added 6.3 μg/ml, 12.5 μg/ml, 25 μg/ml and 50 μg/ml of kaerophyllin and 3.8 μg/ml, 7.5 μg/ml, 15 μg/ml and 30 μg/ml of isokaerphyllin and 10 μl of buffer, respectively. Each well was adjusted to a final volume of 190 μl. The plate was put under 37° C. for 30 minutes. Each well was added 10 μl of 20 μg/ml LPS to stimulate cells. After 16-18 hours under 37° C., the plate was centrifuged to collect the supernatants.
The amount of IL-6 in the supernatant was measured by ELISA (R&D System®) based on the control (DMSO). Meanwhile, the cell viability was measured by MTT assay (Sigma).

Take `C[C@@H]1C[C@H]2[C@@H]3CCC4=CC(=O)C=C[C@]4(C)[C@@]3(F)[C@@H](O)C[C@]2(C)[C@@]1(O)C(=O)CO` [DEX, dexamethasone]: in test [1], the “Inhibition of TNF-α (%)” value turned out to be 9%. Further, in test [2], the “Inhibition of IL-6 (%)” value was −55%.

For `COc1ccc2c(c1)c(CC(=O)O)c(C)n2C(=O)c1ccc(Cl)cc1` [indomethacin], the Inhibition – broadly, the percentage by which the read-out fell short of the control – at 0 hour (%) in test [3] (0 hour) is 0%. The “Inhibition at the 1.5th hour (%)” value in test [3] (1.5th hour) was determined as 21%. The “Inhibition at the 3rd hour (%)” value in test [3] (3rd hour) worked out at 52%.

In the case of `COc1ccc(/C=C2\C(=O)OC[C@@H]2Cc2ccc3c(c2)OCO3)cc1OC` [isokaerophyllin, cis-(3,4-dimethoxybenzylidene)-β-(3,4-methylenedioxylbenzyl)-γ-butyrolactone], the IC50 (as a rule, the concentration at which inhibition is half-maximal) in test [4] turned out to be 18 ± 4 µg/mL (≈ 48.9 µM); in test [5], 24 ± 6 µg/mL (≈ 65.1 µM).
